Test results taken from publication PMC6979384, “Characterization of the plant homeodomain (PHD) reader family for their histone tail interactions” (Epigenetics & Chromatin, 2020).
One block for each substance: values may come before it. Where no end group is shown, it is not given here. [ ]: non-standard residue; d: D form. Lys(Me3) = C[N+](C)(C)CCCC[C@H](N)C(=O)O

What was measured:
[1] = system: 123 annotated human PHD-containing domains; assay: PHD finger domain microarray probed with biotinylated peptides (all domains); assay type: binding; settings: GST-PHD readers in duplicate on nitrocellulose slides, biotinylated peptide pre-labeled with streptavidin-Cy3
Excerpt: To define the histone binding preferences of the PHD finger proteome, we expressed and purified 123 annotated human PHD-containing domains as GST-tagged recombinant fusions from E. coli. The recombinant proteins consisted of either PHD fingers in isolation, or as tandem domains if a given PHD finger was located adjacent to another reader domain (e.g., one or more PHD fingers, Tudor, chromo and/or bromodomains) (Additional file 1: Table S1). These GST fusions were printed in duplicate on nitrocellulose-coated microarray slides and probed with biotinylated peptides that represented the N-termini of H3, H4, H2A or H2B (Fig. 1a and Additional file 2: Figure S1). As the majority of PHD readers thus far characterized are H3K4me0/3 readers, we included additional peptides (H3K4 as either mono-, di-, or trimethylated) to further determine any H3K4 methyl preference (Additional file 2: Figure S2 and Fig. 1b). As a control, we also probed these microarrays with an α-Tubulin peptide (a.a. 30–50) that would not be predicted to interact with PHD fingers (Additional file 2: Figure S1). […] We also cannot exclude the possibility that some PHD fingers might not be functionally active on the microarrays (perhaps due to misfolding or the lack of an important adjacent region).
The protein domain microarray was designed to include 123 GST-tagged PHD-domain containing recombinant proteins. Protein domain microarray development and probing was as previously. Briefly, recombinant proteins were synthesized and cloned into pGEX-4T-1 vector by Biomatik Corporation. These GST-PHD readers were subsequently expressed, purified, and spotted in duplicate onto nitrocellulose-coated glass slides (Oncyte Avid slides, Grace Bio-Labs) using a pin arrayer (Aushon 2470, Aushon). For probing, microarray slides were blocked with 3% milk, 3% bovine serum albumin, 0.1% Tween 20 in PBS. Biotinylated peptides were pre-labeled with streptavidin-Cy3 fluorophore (GE Healthcare) and incubated with the blocked array slides. Slides were then washed with PBST and allowed to air dry. Fluorescent interactions were visualized using a GenePix 4200A Microarray Scanner (Molecular Devices).

[2] = dCypher AlphaScreen Phase A, optimal reader concentration range; assay type: binding; settings: 100 nM biotinylated peptide; 30 min + 60 min at 23 °C; AlphaLISA; n = 2
Protocol: Fig. 3 dCypher histone peptide-binding assays define the PTM recognition preference of PHD proteins with high sensitivity. a–h Binding curves to determine optimal reader protein concentration for full peptide library screening on the dCypher® AlphaScreen® platform (see “Methods”). X-axes are log(protein concentration (M)) at constant peptide concentration (100 nM); Y-axes are AlphaScreen counts, representing relative strength of binding (n = 2; error bars are S.D.). i Heat map represents relative binding to H3 N-terminal peptides (left) by PHD-containing GST-tagged proteins (top) using the dCypher AlphaScreen platform. Protein concentrations can be found in Additional file 5: Table S4. Binding strength is indicated by color gradient from green to yellow (stronger to weaker). The asterisk (*) by MLL5 signifies its general preference for H3K4 methylation. Alpha counts (n = 2) were normalized individually for each protein to the highest signal for each respective assay. For full dCypher peptide screen data, see Additional file 4: Table S3
We next employed a highly sensitive proximity-based AlphaScreen histone peptide assay (dCypher®) to provide a third and orthogonal approach to analyzing the histone binding preferences for a subset of the 31 PHD proteins with respect to various histone tail PTMs. In this assay, biotinylated peptides are bound to streptavidin “donor” beads and the GST-tagged reader domains bound to Glutathione “acceptor” beads. […] Initial binding assays were conducted for each fusion protein using three peptides [H3 (1–20) with K4me0, H3K4me3 or H3K9me3] to determine the optimal reader domain concentration for full peptide library studies (Fig. 3a–h; Additional file 4: Table S3 and Additional file 5: Table S4). […]
The dCypher peptide screen assay was performed as previously described. […] Plates were incubated at 23 °C in subdued lighting for 60 min and AlphaLISA signal measured on a PerkinElmer 2104 EnVision (680 nm laser excitation, 570 nm emission filter ± 50 nm bandwidth). […]

AIRE (PP) = assay: Histone peptide microarray; assay type: binding, human; settings: histone peptide array, GST-tagged reader; arrays performed twice, n of 4
Outline: (§1)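 Recombinant GST-PHD protein at 0.5 μM; 293-member modified histone peptide array; signals averaged from four repeats ± SD.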

PHF2 = assay: Histone peptide microarray; assay type: binding, human; settings: histone peptide array, GST-tagged reader; arrays performed twice, n of 4
Outline: as §1

CHD5 (PCC) = assay: Histone peptide microarray; assay type: binding, human; settings: histone peptide array, GST-tagged reader; PCC = PHD + Dual Chromodomain; arrays performed twice, n of 4
Outline: as §1

ING2 = assay: Histone peptide microarray; assay type: binding, human; settings: histone peptide array, GST-tagged reader; arrays performed twice, n of 4
Outline: as §1

PHF13 = assay: Histone peptide microarray; assay type: binding, human; settings: histone peptide array, GST-tagged reader; arrays performed twice, n of 4
Outline: as §1

PHF23 = assay: Histone peptide microarray; assay type: binding, human; settings: histone peptide array, GST-tagged reader; arrays performed twice, n of 4
Outline: as §1

ING1 = assay: Histone peptide microarray; assay type: binding, human; settings: histone peptide array, GST-tagged reader; arrays performed twice, n of 4
Outline: as §1

TAF3 = assay: Histone peptide microarray; assay type: binding, human; settings: histone peptide array, GST-tagged reader; arrays performed twice, n of 4
Outline: as §1

CHD4 (PPCC) = assay: Histone peptide microarray; assay type: binding, human; settings: histone peptide array, GST-tagged reader; PPCC = Dual PHD + Dual Chromodomain; arrays performed twice, n of 4
Outline: as §1

MLL5 = assay: Histone peptide microarray; assay type: binding, human; settings: histone peptide array, GST-tagged reader; arrays performed twice, n of 4
Outline: as §1

RAG2 = assay: Histone peptide microarray; assay type: binding, human; settings: histone peptide array, GST-tagged reader; arrays performed twice, n of 4
Outline: as §1

KDM5A (3) = assay: Histone peptide microarray; assay type: binding, human; settings: histone peptide array, GST-tagged reader; arrays performed twice, n of 4
Outline: as §1

TRIM66 (PB) = assay: Histone peptide microarray; assay type: binding, human; settings: histone peptide array, GST-tagged reader; PB = PHD + Bromodomain; arrays performed twice, n of 4
Outline: as §1

ING3 = assay: Histone peptide microarray; assay type: binding, human; settings: histone peptide array, GST-tagged reader; arrays performed twice, n of 4
Outline: as §1

KDM5B (3) = assay: Histone peptide microarray; assay type: binding, human; settings: histone peptide array, GST-tagged reader; arrays performed twice, n of 4
Outline: as §1

BAZ2B = assay: Histone peptide microarray; assay type: binding, human; settings: histone peptide array, GST-tagged reader; arrays performed twice, n of 4
Outline: as §1

MORC3 (CW) = assay: Histone peptide microarray; assay type: binding, human; settings: histone peptide array, GST-tagged reader; CW = CW-type Zn-finger; arrays performed twice, n of 4
Outline: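 GST-tagged PHD readers, 0.5 μM, probed on a microarray of 293 synthetic histone peptides carrying single or combinatorial PTMs (optimized Petell protocol). Signals are averaged over 4 replicates and expressed as relative binding.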

SP140L = assay: Histone peptide microarray; assay type: binding, human; settings: histone peptide array, GST-tagged reader; arrays performed twice, n of 4
Outline: as §1

BPTF (PB) = assay: Histone peptide microarray; assay type: binding, human; settings: histone peptide array, GST-tagged reader; PB = PHD + Bromodomain; arrays performed twice, n of 4
Outline: as §1

PHRF1 (RP) = assay: Histone peptide microarray; assay type: binding, human; settings: histone peptide array, GST-tagged reader; arrays performed twice, n of 4
Outline: as §1

KDM7A = assay: Histone peptide microarray; assay type: binding, human; settings: histone peptide array, GST-tagged reader; arrays performed twice, n of 4
Outline: as §1

KDM4C (TTP) = assay: Histone peptide microarray; assay type: binding, human; settings: histone peptide array, GST-tagged reader; TTP = Tandem Tudor domain + PHD; arrays performed twice, n of 4
Outline: as §1

PHF21A = assay: Histone peptide microarray; assay type: binding, human; settings: histone peptide array, GST-tagged reader; arrays performed twice, n of 4
Outline: as §1

DPF2 (PPC2W2) = assay: Histone peptide microarray; assay type: binding, human; settings: histone peptide array, GST-tagged reader; PPC2W2 = Dual PHD + C2W2-type Zn-finger; arrays performed twice, n of 4
Outline: as §1

DIDO1 = assay: Histone peptide microarray; assay type: binding, human; settings: histone peptide array, GST-tagged reader; arrays performed twice, n of 4
Outline: as §1

KDM5B (1) = assay: Histone peptide microarray; assay type: binding, human; settings: histone peptide array, GST-tagged reader; arrays performed twice, n of 4
Outline: as §1

ING4 = assay: Histone peptide microarray; assay type: binding, human; settings: histone peptide array, GST-tagged reader; arrays performed twice, n of 4
Outline: as §1

CHD5 (PPCC) = assay: Histone peptide microarray; assay type: binding, human; settings: histone peptide array, GST-tagged reader; PPCC = Dual PHD + Dual Chromodomain; arrays performed twice, n of 4
Outline: as §1

KDM5A (1) = assay: Histone peptide microarray; assay type: binding, human; settings: histone peptide array, GST-tagged reader; arrays performed twice, n of 4
Outline: as §1

PHF8 = assay: Histone peptide microarray; assay type: binding, human; settings: histone peptide array, GST-tagged reader; arrays performed twice, n of 4
Outline: as §1

ING5 = assay: Histone peptide microarray; assay type: binding, human; settings: histone peptide array, GST-tagged reader; arrays performed twice, n of 4
Outline: as §1

Substance: KDM7A: GST-tagged PHD, 1-100
Phase A Optimal Range (reader concentration) [2]: 0.05 to 1 nM

Substance: H4: biotinylated N-terminal H4 peptide (Figure S1: Ac-H4 (1-16)) (SGRGKGGKGLGKGGAK; biotin, N-terminal acetyl; UniProt P62805 2-17, looked up, fragment) [Peptide H4]
binding on domain microarray [1]: little to no positive interactions

Substance: MLL5: GST-tagged PHD, 100-180
Phase A Optimal Range (reader concentration) [2]: 0.015 to 0.05 nM

Substance: DIDO1: GST-tagged PHD, 250-340
Phase A Optimal Range (reader concentration) [2]: 0.015 to 0.5 nM

Substance: H3.3K36me3 (27-45): H3.3 27-45 (KSAPSTGGV[Lys(Me3)]KPHRYRPGT; UniProt P84243 28-46, looked up, fragment)
Array Heatmap signal, AIRE (PP) (AIRE (PP)): 0.5852
Array Heatmap signal, PHF2 (PHF2): 0.459
Array Heatmap signal, CHD5 (PCC) (CHD5 (PCC)): 0.837
Array Heatmap signal, ING2 (ING2): 0.6059
Array Heatmap signal, PHF13 (PHF13): 0.6344
Array Heatmap signal, PHF23 (PHF23): 0.5271
Array Heatmap signal, ING1 (ING1): 0.5245
Array Heatmap signal, TAF3 (TAF3): 0.2966
Array Heatmap signal, CHD4 (PPCC) (CHD4 (PPCC)): 0.6082
Array Heatmap signal, MLL5 (MLL5): 0.5409
Array Heatmap signal, RAG2 (RAG2): 0.254
Array Heatmap signal, KDM5A (3) (KDM5A (3)): 0.4596
Array Heatmap signal, TRIM66 (PB) (TRIM66 (PB)): 0.5777
Array Heatmap signal, ING3 (ING3): 0.4806
Array Heatmap signal, KDM5B (3) (KDM5B (3)): 0.5477
Array Heatmap signal, BAZ2B (BAZ2B): 0.5018
Array Heatmap signal, MORC3 (CW) (MORC3 (CW)): 0.4025
Array Heatmap signal, SP140L (SP140L): 0.3873
Array Heatmap signal, BPTF (PB) (BPTF (PB)): 0.3644
Array Heatmap signal, PHRF1 (RP) (PHRF1 (RP)): 0.4414
Array Heatmap signal, KDM7A (KDM7A): 0.4319
Array Heatmap signal, KDM4C (TTP) (KDM4C (TTP)): 0.5574
Array Heatmap signal, PHF21A (PHF21A): 0.5086
Array Heatmap signal, DPF2 (PPC2W2) (DPF2 (PPC2W2)): 0.6714
Array Heatmap signal, DIDO1 (DIDO1): 0.6308
Array Heatmap signal, KDM5B (1) (KDM5B (1)): 0.6389
Array Heatmap signal, ING4 (ING4): 0.493
Array Heatmap signal, CHD5 (PPCC) (CHD5 (PPCC)): 0.5971
Array Heatmap signal, KDM5A (1) (KDM5A (1)): 0.5417
Array Heatmap signal, PHF8 (PHF8): 0.3825
Array Heatmap signal, ING5 (ING5): 0.3836

More lines, now with the values ahead:

binding on domain microarray [1]: No detectable binding observed
Substance: Ac-H2A (1-17): histone peptide (Ac-SGRGKQGGKARAKAKTR; UniProt P0C0S8 2-18, looked up, fragment)

binding on domain microarray [1]: little to no positive interactions
Substance: H2B: biotinylated N-terminal H2B peptide (Figure S1: H2B (1-24)) [Peptide H2B]

binding on domain microarray [1]: No detectable binding observed
binding on domain microarray ([1]; listed as tubulin): little to no positive interactions
Substance: α-Tubulin (30-50): α-Tubulin peptide (a.a. 30–50), control (IQPDGQMPSDKTIGGGDDSFN; also: biotin (end not given here))

binding on domain microarray [1]: No detectable binding observed
Substance: Ac-H4 (1-16): histone peptide (SGRGKGGKGLGKGGAK; N-terminal acetylation; UniProt P62805 2-17, looked up, fragment)
